The values below come from patent publication US11873291B2, “Quinoline cGAS antagonist compounds” (ImmuneSensor Therapeutics, Inc., priority 2020, dated 2024).

Each structure is given as a SMILES string. Like-named read-outs stand apart in the source and are kept apart here.

The target in this test is T1, recombinant human cGAS (aa147-522) (Homo sapiens, UniProt Q8N884).
T1 construct: recombinant human cGAS (aa147-522); His6-SUMO (cleaved yes); made in house; host or cells: E. coli BL21/pLys
Kind of test: In vitro inhibition assay of cGAS activity (ATP consumption, KinaseGlo Max). The class given is biochemical. The procedure: Expression and Purification of Recombinant cGAS Protein: cDNA encoding full-length or amino acids […] of human cGAS was inserted into a modified pET28a vector containing an in-frame His6-SUMO tag. The E. coli strain BL21/pLys harboring the plasmid was induced with 0.5 mM IPTG at 18° C. overnight. His6-SUMO tag was removed by a SUMO protease digestion following purification of the His6-SUMO-cGAS as described previously (Sun et al, 2013, Science 339, 786).
In vitro inhibition assay of cGAS activity: A 60 μL mixture containing 20 mM Tris-Cl, pH 7.5, 5 mM MgCl2, 0.2 mg/mL BSA, 0.01 mg/mL Herring testis DNA, 6.6 μM ATP, 0.1 mM GTP, 1.5 μg/mL of recombinant human cGAS (aa147-522) and serial dilutions of a test compound in DMSO was added to a 96-well plate and incubated at 37° C. for 20 minutes. At the end of reaction, 40 μL of KinaseGlo Max (Promega) was added and chemiluminescence was measured with a luminometer. Inhibitory effect of a compound is evaluated by plotting percentage of ATP consumption against logarithm of compound concentrations. IC50 value was calculated using GraphPad Prism 8 (GraphPad Software, Inc.).
The letter codes for cGAS IC50 include: A (<2 μM); B (2-30 μM); C (>30 μM).
(In general: In Kinase-Glo more light means more ATP remaining.)

Where [1] appears, read: Table 2, read-out: cGAS Inhibition Results IC50.

T1 sequence (Q8N884 147-522): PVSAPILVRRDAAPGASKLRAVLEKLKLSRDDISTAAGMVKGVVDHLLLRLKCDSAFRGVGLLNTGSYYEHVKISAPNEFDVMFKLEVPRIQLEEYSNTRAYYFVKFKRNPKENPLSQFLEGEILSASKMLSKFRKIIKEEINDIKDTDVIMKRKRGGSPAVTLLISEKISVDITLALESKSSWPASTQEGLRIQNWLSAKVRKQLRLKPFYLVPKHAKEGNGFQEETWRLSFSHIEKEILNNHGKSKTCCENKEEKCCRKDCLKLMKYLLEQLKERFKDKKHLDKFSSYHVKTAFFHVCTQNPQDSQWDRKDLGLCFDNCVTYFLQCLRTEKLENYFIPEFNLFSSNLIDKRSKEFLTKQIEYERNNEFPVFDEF

On to `O=C(O)CCOC[C@@H]1[C@@H]2C[C@@H]2CN1c1cc(-n2ccnc2)c2ccc(Cl)c(Cl)c2n1` (stereo in doubt) [I-809], for which the IC50 (commonly the point on the concentration scale where inhibition reaches its midpoint) (Table 3, read-out: cGAS Inhibition Results IC50) was < 2 µM.

Turning to `Clc1ccc2c(-n3ccnc3)cc(-c3ccccc3)nc2c1` [I-1], the IC50 under setting [1] fell in the range of 2 to 30 µM.

`COc1ccc(-c2cc(-n3ccnc3)c3ccc(Cl)cc3n2)cc1` [I-2, 7-chloro-4-(1H-imidazol-1-yl)-2-(4-methoxyphenyl)quinoline]: the IC50 under setting [1] fell in the range of 2 to 30 µM.

With `COC(=O)c1ccc(-c2cc(-n3ccnc3)c3ccc(Cl)cc3n2)cc1` [I-3], the IC50 under setting [1] was > 30 µM.

As for `O=C(O)c1ccc(-c2cc(-n3ccnc3)c3ccc(Cl)cc3n2)cc1` [I-4], the IC50 under setting [1] fell in the range of 2 to 30 µM.

In the case of `COC(=O)c1cccc(-c2cc(-n3ccnc3)c3ccc(Cl)cc3n2)c1` [I-5], the IC50 under setting [1] lay in the range of 2 to 30 µM.

Take `O=C(O)c1cccc(-c2cc(-n3ccnc3)c3ccc(Cl)cc3n2)c1` [I-6, 3-(7-Chloro-4-(1H-imidazol-1-yl)quinolin-2-yl)benzoic acid]: the IC50 under setting [1] is < 2 µM.

Take `NC(=O)c1cccc(-c2cc(-n3ccnc3)c3ccc(Cl)cc3n2)c1` [I-7, 3-(7-chloro-4-(1H-imidazol-1-yl)quinolin-2-yl)benzamide]: the IC50 under setting [1] is 2 to 30 µM.

Turning to `Nc1cccc(-c2cc(-n3ccnc3)c3ccc(Cl)cc3n2)c1` [I-8, 3-(7-chloro-4-(1H-imidazol-1-yl)quinolin-2-yl)aniline], the IC50 under setting [1] was 2 to 30 µM.

For `O=C(O)Cc1cccc(-c2cc(-n3ccnc3)c3ccc(Cl)cc3n2)c1` [I-9], the IC50 under setting [1] is > 30 µM.

As to `CS(=O)(=O)Nc1cccc(-c2cc(-n3ccnc3)c3ccc(Cl)cc3n2)c1` [I-10, N-(3-(7-chloro-4-(1H-imidazol-1-yl)quinolin-2-yl)phenyl)methanesulfonamide], under setting [1], the IC50 lay within 2 to 30 µM.

Regarding `NC(=O)Nc1cccc(-c2cc(-n3ccnc3)c3ccc(Cl)cc3n2)c1` [I-11, 1-(3-(7-chloro-4-(1H-imidazol-1-yl)quinolin-2-yl)phenyl)urea], the IC50 under setting [1] was 2 to 30 µM.

`CCOC(=O)c1ccccc1-c1cc(-n2ccnc2)c2ccc(Cl)cc2n1` [I-12]: the IC50 under setting [1] was > 30 µM.

As for `O=C(O)c1ccccc1-c1cc(-n2ccnc2)c2ccc(Cl)cc2n1` [I-13], the IC50 under setting [1] is > 30 µM.

For `O=C(O)Cc1ccccc1-c1cc(-n2ccnc2)c2ccc(Cl)cc2n1` [I-14], the IC50 under setting [1] was > 30 µM.

`O=C(O)c1cc(-c2cc(-n3ccnc3)c3ccc(Cl)cc3n2)ccc1O` [I-16, 5-(7-chloro-4-(1H-imidazol-1-yl)quinolin-2-yl)-2-hydroxybenzoic acid]: the half-maximal inhibitory concentration (IC50) under setting [1] was > 30 µM.

Consider `O=C(O)c1cc(-c2cc(-n3ccnc3)c3ccc(Cl)cc3n2)ccc1F` [I-17], for which the IC50 under setting [1] lay in the range of 2 to 30 µM.

Turning to `O=C(O)c1cc(-c2cc(-n3ccnc3)c3ccc(Cl)cc3n2)ccc1OC(F)(F)F` [I-18], the IC50 under setting [1] fell in the range of 2 to 30 µM.

For `CCOc1ccc(-c2cc(-n3ccnc3)c3ccc(Cl)cc3n2)cc1C(=O)O` [I-19, 5-(7-chloro-4-(1H-imidazol-1-yl)quinolin-2-yl)-2-ethoxybenzoic acid], the IC50 under setting [1] is < 2 µM.

`Nc1ccc(-c2cc(-n3ccnc3)c3ccc(Cl)cc3n2)cc1C(=O)O` [I-20]: the IC50 under setting [1] is < 2 µM.

Turning to `O=C(O)c1cc(-c2cc(-n3ccnc3)c3ccc(Cl)cc3n2)ccc1OCCO` [I-21, 5-(7-chloro-4-(1H-imidazol-1-yl)quinolin-2-yl)-2-(2-hydroxyethoxy)benzoic acid], the IC50 under setting [1] was < 2 µM.

`Nc1cc(C(=O)O)cc(-c2cc(-n3ccnc3)c3ccc(Cl)cc3n2)c1` [I-22, 3-amino-5-(7-chloro-4-(1H-imidazol-1-yl)quinolin-2-yl)benzoic acid]: the IC50 under setting [1] was < 2 µM.

Take `O=C(CO)Nc1cc(C(=O)O)cc(-c2cc(-n3ccnc3)c3ccc(Cl)cc3n2)c1` [I-23, 3-(7-chloro-4-(1H-imidazol-1-yl)quinolin-2-yl)-5-(2-hydroxyacetamido)benzoic acid]: under setting [1], the IC50 is < 2 µM.

For `CC(C)(C)c1cc(C(=O)O)cc(-c2cc(-n3ccnc3)c3ccc(Cl)cc3n2)c1` [I-25], the IC50 under setting [1] was > 30 µM.

As for `O=C(O)c1cc(O)cc(-c2cc(-n3ccnc3)c3ccc(Cl)cc3n2)c1` [I-26, 3-(7-chloro-4-(1H-imidazol-1-yl)quinolin-2-yl)-5-hydroxybenzoic acid], the IC50 under setting [1] was < 2 µM.

Take `O=C(O)c1cc(Br)cc(-c2cc(-n3ccnc3)c3ccc(Cl)cc3n2)c1` [I-27]: the IC50 under setting [1] is > 30 µM.

With `O=C(O)c1cc(C(=O)O)cc(-c2cc(-n3ccnc3)c3ccc(Cl)cc3n2)c1` [I-28], the 50% inhibitory concentration (IC50) under setting [1] is < 2 µM.

With `O=C(O)c1cc(OCCO)cc(-c2cc(-n3ccnc3)c3ccc(Cl)cc3n2)c1` [I-29], the IC50 under setting [1] is < 2 µM.

On to `COc1ccc(C(=O)O)cc1-c1cc(-n2ccnc2)c2ccc(Cl)cc2n1` [I-30], for which, under setting [1], the concentration for half-maximal inhibition (IC50) lay within 2 to 30 µM.

In the case of `O=C(O)c1ccc(Cl)c(-c2cc(-n3ccnc3)c3ccc(Cl)cc3n2)c1` [I-31], under setting [1], the IC50 was > 30 µM.

Turning to `O=C(O)c1cncc(-c2cc(-n3ccnc3)c3ccc(Cl)cc3n2)c1` [I-32], under setting [1], the IC50 was < 2 µM.

Turning to `COc1ncc(-c2cc(-n3ccnc3)c3ccc(Cl)cc3n2)cc1C(=O)O` [I-33, 5-(7-chloro-4-(1H-imidazol-1-yl)quinolin-2-yl)-2-methoxynicotinic acid], the IC50 under setting [1] fell in the range of 2 to 30 µM.

Take `COC(=O)c1cncc(-c2cc(-n3ccnc3)c3ccc(Cl)cc3n2)c1` [I-34]: under setting [1], the IC50 was > 30 µM.

With `Clc1ccc2c(-n3ccnc3)cc(-c3ccc4nn[nH]c4c3)nc2c1` [I-35], the IC50 under setting [1] lay within 2 to 30 µM.

As for `O=c1[nH]c2cc(-c3cc(-n4ccnc4)c4ccc(Cl)cc4n3)ccc2o1` [I-36], the IC50 under setting [1] was > 30 µM.

For `O=C(O)c1cc2c(c(-c3cc(-n4ccnc4)c4ccc(Cl)cc4n3)c1)OCO2` [I-37], the IC50 under setting [1] is > 30 µM.

Turning to `O=C(O)c1cc2c(c(-c3cc(-n4ccnc4)c4ccc(Cl)cc4n3)c1)OC(F)(F)O2` [I-38], the 50% inhibitory concentration (IC50) under setting [1] was > 30 µM.

For `COc1ccc(-c2cc(-n3ccnc3)c3ccc(Cl)c(Cl)c3n2)cc1C#N` [I-40], under setting [1], the IC50 is > 30 µM.

`COc1ccc(-c2cc(-n3ccnc3)c3ccc(Cl)c(Cl)c3n2)cc1O` [I-41]: the IC50 under setting [1] is < 2 µM.

For the molecule `O=C(O)c1cc(-c2cc(-n3ccnc3)c3ccc(Cl)c(Cl)c3n2)ccc1O` [I-42, 5-(7,8-dichloro-4-(1H-imidazol-1-yl)quinolin-2-yl)-2-hydroxybenzoic acid], the IC50 under setting [1] was < 2 µM.

With `Oc1cccc(-c2cc(-n3ccnc3)c3ccc(Cl)c(Cl)c3n2)c1` [I-43], the IC50 under setting [1] was < 2 µM.

Turning to `Oc1cc(OC(F)(F)F)cc(-c2cc(-n3ccnc3)c3ccc(Cl)c(Cl)c3n2)c1` [I-44], the IC50 under setting [1] is > 30 µM.

For the molecule `COc1c(C(=O)O)cccc1-c1cc(-n2ccnc2)c2ccc(Cl)c(Cl)c2n1` [I-45], the IC50 under setting [1] was in the range of 2 to 30 µM.

`NS(=O)(=O)c1cccc(-c2cc(-n3ccnc3)c3ccc(Cl)c(Cl)c3n2)c1` [I-46]: the 50% inhibitory concentration (IC50) under setting [1] is < 2 µM.

Turning to `Oc1ccc(-c2cc(-n3ccnc3)c3ccc(Cl)c(Cl)c3n2)cc1` [I-47], under setting [1], the IC50 was < 2 µM.

For the molecule `COc1c(Br)ccc2c(-n3ccnc3)cc(-c3cccc(C(=O)O)c3)nc12` [I-48, 3-(7-Bromo-4-(1H-imidazol-1-yl)-8-methoxyquinolin-2-yl)benzoic acid], the IC50 under setting [1] is < 2 µM.

Take `O=C(O)c1cccc(-c2cc(-n3ccnc3)c3ccc(C(F)(F)F)cc3n2)c1` [I-49, 3-(4-(1H-imidazol-1-yl)-7-(trifluoromethyl)quinolin-2-yl)benzoic acid]: the IC50 under setting [1] was > 30 µM.

As to `Clc1cc2nc(-c3ccccc3)cc(-n3ccnc3)c2cc1Cl` [I-50], the 50% inhibitory concentration (IC50) under setting [1] is < 2 µM.

Regarding `COc1c(-c2ccccc2)ccc2c(-n3ccnc3)cc(-c3ccccc3)nc12` [I-51], the IC50 under setting [1] is > 30 µM.

With `Clc1c(-n2ccnc2)cc2c(-n3ccnc3)cc(-c3ccccc3)nc2c1Cl` [I-52], the IC50 under setting [1] is > 30 µM.

For the molecule `Oc1c(Br)ccc2c(-n3ccnc3)cc(-c3ccccc3)nc12` [I-53, 7-bromo-4-(1H-imidazol-1-yl)-2-phenylquinolin-8-ol], the IC50 under setting [1] lay in the range of 2 to 30 µM.

For `COc1c(Br)ccc2c(-n3ccnc3)cc(-c3ccccc3)nc12` [I-54, 7-bromo-4-(1H-imidazol-1-yl)-8-methoxy-2-phenylquinoline], under setting [1], the 50% inhibitory concentration (IC50) was in the range of 2 to 30 µM.

Regarding `O=C(O)c1cc(-c2cc(-n3ccnc3)c3ccc(Cl)cc3n2)cs1` [I-55], under setting [1], the IC50 is < 2 µM.

As to `O=C(O)c1cc(-c2cc(-n3ccnc3)c3ccc(Cl)cc3n2)c[nH]1` [I-56, 4-(7-chloro-4-(1H-imidazol-1-yl)quinolin-2-yl)-1H-pyrrole-2-carboxylic acid], the half-inhibitory concentration (IC50) under setting [1] fell in the range of 2 to 30 µM.

On to `O=C(O)c1cc(-c2cc(-n3ccnc3)c3ccc(Cl)cc3n2)cnc1O` [I-57, 5-(7-chloro-4-(1H-imidazol-1-yl)quinolin-2-yl)-2-hydroxynicotinic acid], for which the IC50 under setting [1] was in the range of 2 to 30 µM.

For `Oc1ccc(-c2cc(-n3ccnc3)c3ccc(Cl)cc3n2)cn1` [I-58], the IC50 under setting [1] is > 30 µM.

`Oc1cc(-c2cc(-n3ccnc3)c3ccc(Cl)cc3n2)ccn1` [I-59]: the IC50 under setting [1] is > 30 µM.

With `Cc1cn(-c2cc(-c3ccccc3)nc3cc(Cl)ccc23)cn1` [I-60], the IC50 under setting [1] is > 30 µM.

Take `Cc1ncn(-c2cc(-c3ccccc3)nc3cc(Cl)ccc23)c1C` [I-61]: the IC50 under setting [1] is > 30 µM.
